Assay [1] addresses penicillin-binding protein 2a (PBP2a), truncated, recombinant from E. coli (Staphylococcus aureus (methicillin-resistant, MRSA)) (UniProt P07944). The assay can be described thus: relative IC50: competition with biotinylated ampicillin for PBP2a.
Assay [2] has the same target. The assay can be described thus: relative IC50: competition with biotinylated ampicillin for PBP2a, SDS-PAGE and streptavidin-HRP blot.
In assay [3] the target is T1, PBP2a (Staphylococcus aureus, UniProt P07944).
T1 construct: The truncated PBP2a gene (Roychoudhury et al., J. Biol. Chem. 269:112067-12073, 1994) (cleaved yes); made in house; host or cells: E. coli BL21(DE3)
The assay can be described thus: biochemical. It counts as biochemical.

Like-named read-outs stand apart in the source and are kept apart here. Peptide text beside a SMILES is read from it. * marks the point of attachment. X1 = CC1(C)S[C@@H]2[C@H](NC(=O)C*)C(=O)N2[C@H]1C(=O)O

The source of these data is patent publication US20030235852A1, “Nucleic acid-peptide display libraries containing peptides with unnatural amino acid residues, and methods of making same using peptide modifying agents” (priority 2002, published 2003).

For the compound “LRNSNC(pen)IRHFF (residues 2-12 of SEQ ID NO: 5), synthetic peptide penicillanate conjugate”, the fold improvement compared to 6-aminopenicillanic acid in assay [1] came out at 100 fold.

In general, IC50 refers to the concentration that inhibits the measured activity by half. For “LRNSNC(COOH)IRHFF (residues 2-12 of SEQ ID NO: 5), peptide derivatized with bromoacetic acid”, in assay [2], the concentration for half-maximal inhibition (IC50) is > 35 mM.

Turning to `CC[C@H](C)[C@H](NC(=O)[C@H](CSCC(=O)N[C@@H]1C(=O)N2[C@@H]1SC(C)(C)[C@@H]2C(=O)O)NC(=O)[C@H](CC(N)=O)NC(=O)[C@H](CO)NC(=O)[C@H](CC(N)=O)NC(=O)[C@H](CCCNC(=N)N)NC(=O)[C@@H](N)CC(C)C)C(=O)N[C@@H](CCCNC(=N)N)C(=O)N[C@@H](Cc1c[nH]cn1)C(=O)N[C@@H](Cc1ccccc1)C(=O)N[C@@H](Cc1ccccc1)C(=O)O` [LRNSNC(pen)IRHFF] (H-LRNSNC(X1)IRHFF-OH), the IC50 in assay [3] (2 μg pure PBP2a, conjugate 15 min at 37° C., then 20 μg biotinylated ampicillin 10 min, read-out: relative IC50) is ~7 mM. Also, the “improvement of PBP2a inhibition over the parent penam” value in assay [3] (as compared) is on record as “about 100 fold”.

In assay [3], `CO/N=C(\C(=O)N[C@@H]1C(=O)N2C(C(=O)O)=C(COC(C)=O)CS[C@H]12)c1csc(N)n1` [cefotaxime, reference compound] gave an IC50 of 2.9 mM.
